Like-named read-outs stand apart in the source and are kept apart here.
Experiments:
[1] = target: T1, cGMP PDE5 (Homo sapiens, UniProt O76074); test: In vitro cGMP PDE5 inhibitory activity (IC50); type: biochemical
T1 construct: The required PDE enzymes were isolated from a variety of sources, including human corpus cavernosum, human platelets; from tissue; host or cells: human corpus cavernosum tissue or human platelets
Description: The compounds of the present invention are potent and selective cGMP PDE5 inhibitors. In vitro PDE inhibitory activities against cyclic guanosine 3′,5′-monophosphate (cGMP) and cyclic adenosine 3′,5′-monophosphate (cAMP) phosphodiesterases were determined by measurement of their IC50 values (the concentration of compound required for 50% inhibition of enzyme activity).
The required PDE enzymes were isolated from a variety of sources, including human corpus cavernosum, human platelets, human cardiac ventricle, human skeletal muscle and human and canine retina, essentially by the method of W. J. Thompson and M. M. Appleman (Biochem., 1971, 10, 311). In particular, the cGMP-specific PDE (PDE5) and the cGMP-inhibited cAMP PDE (PDE3) were obtained from human corpus cavernosum tissue or human platelets; the cGMP-stimulated PDE (PDE2) was obtained from human corpus cavernosum or human platelets; the calcium/calmodulin (Ca/CAM)-dependent PDE (PDE1) from human cardiac ventricle; the cAMP-specific PDE (PDE4) from recombinant clone or human skeletal muscle; and the photoreceptor PDE (PDE6) from canine or human retina. Phosphodiesterases 7-11 were generated from full length human recombinant clones transfected into SF9 cells.
Assays were performed either using a modification of the “batch” method of W. J. Thompson et al. (Biochem., 1979, 18, 5228) or using a scintillation proximity assay for the direct detection of AMP/GMP using a modification of the protocol described by Amersham pic under product code TRKQ7090/7100. In summary, the effect of PDE inhibitors was investigated by assaying a fixed amount of enzyme in the presence of varying inhibitor concentrations and low substrate, (cGMP or cAMP in a 3:1 ratio unlabelled to [^3H]-labeled at a conc ˜½ Km) such that IC50 ≅Ki. The final assay volume was made up to 102 μl with assay buffer [20 mM Tris-HCl pH 7.4, 5 mM MgCl2, 1 mg/ml bovine serum albumin]. Reactions were initiated with enzyme, incubated for 30-60 min at 30° C. to give <30% substrate turnover and terminated with 50 μl yttrium silicate SPA beads (containing 3 mM of the respective unlabelled cyclic nucleotide for PDEs 3, 9 and 11). Plates were resealed and shaken for 20 min, after which the beads were allowed to settle for 30 min in the dark and then counted on a TopCount plate reader (Packard, Meriden, Conn.). Radioactivity units were converted to % activity of an uninhibited control (100%), plotted against inhibitor concentration and inhibitor IC50 values obtained using the ‘Fit Curve’ Microsoft Excel extension or inhouse equivalent.

[2] = In vitro metabolism: human liver microsome (HLM) half-life; type: in vitro ADME; details: human liver microsomes, pH 7.4, human liver microsomes
Description: In vitro metabolism experiments were carried out in the hepatic microsomal fractions from man. Transplant-quality human liver tissue was obtained from the International Institute for the Advancement of Medicine (Exton, Pa., USA). Microsomes were prepared according to the method described in Biochemical Pharmacology, […], 48, 2147-2156 and stored at −80° C. The concentrations of protein and cytochrome P450 were determined by standard methods described in Journal of Biological Chemistry, 1951, 193, 265-275 and Journal of Biological Chemistry, 1964, 239, 2370-2378.
Microsomal incubations (1.5 ml) were prepared containing 0.5 μM cytochrome P450, 200 mM phosphate buffer (pH 7.4), 0.1 M MgCl2, 0.1 M isocitric acid, 1 unit/ml isocitrate dehydrogenase and 20 mM β-NADP. Compounds under study were added after a 5 min preincubation at 37° C. to give an initial substrate concentration of 1 μM. The mixture was incubated at 37° C. and samples (100 μl) were removed for analysis for up to 60 min. Metabolism in samples was terminated by the addition of NaOH (0.1 M) containing an internal standard (chosen to have similar physicochemical properties to compounds under study), followed by extraction into ethyl acetate (2 ml). The extracts were evaporated to dryness and analysed by LC-MS/MS (Hewlett Packard HP1100 binary pump, Hypersil HS100 C18, 5 cm by 4.6 mm internal diameter, 5 μm column using a mobile phase of 2 mM ammonium acetate in 90:10 methanol/water, aqueous portion adjusted to pH 4 with glacial acetic acid, and a flowrate of 1 ml/min). The mass spectrometer was a Sciex API 2000 with TurbolonSpray interface using a positive ion multiple reaction monitoring (MRM) detection mode. Nitrogen was used as curtain, nebuliser, TurbolonSpray and collision gases, and the TurbolonSpray temperature was 100° C. Typical voltages were as follows: IS=5.2 kV; RNG=380 V; Q0=−10 V; IQ1=−11 V; ST=−15;RO1=−11 V; MU=gain adjusted as per Sciex user manual. Collision energy was 55 eV for high MRM, OR=65 V. Dwell time was 200 msec with a 50 msec pause. Data was acquired using MSExpress v 1.1 and processed using Macquan 1.5 (PE Sciex)). Disappearance rate constants (k) in human microsomal preparations were determined by linear regression of the log ratio (compound under study/internal standard) versus time. The in vitro human microsomal half-lives were determined according to the equation […]=In 2/k.

[3] = bounds for groups of Examples, read-out: IC50 values for the PDE5 enzyme
[4] = in vitro cGMP PDE5 inhibitory activity, Table 1, read-out: IC50
[5] = bound stated, read-out: HLM half-lifes
[6] = initial substrate concentration 1 μM, 37° C., Table 2, read-out: HLM t1/2

Structure (SMILES) | half-life at 1 μM [2, 6] [min] | IC50 [1, 3] [nM] | IC50 [1, 4] [nM] | half-life at 1 μM [2, 5] [min] | melting point [°C]
CCCCOc1ccc(S(C)(=O)=O)cc1-c1nc2c(CC)n(CCOC)nc2c(=O)[nH]1 [Example 2, 5-[2-Butoxy-5-(methylsulfonyl)phenyl]-3-ethyl-2-(2-methoxyethyl)-2,6-dihydro-7H-pyrazolo[4,3-d]pyrimidin-7-one] | – | < 10 | 6.5 | ≥ 30 | 174 to 176
CCc1c2nc(-c3cc(S(C)(=O)=O)ccc3OCC(C)C)[nH]c(=O)c2nn1Cc1nccn1C [Example 9, 3-Ethyl-5-[2-isobutoxy-5-(methylsulfonyl)phenyl]-2-[(1-methyl-1H-imidazol-2-yl)methyl]-2,6-dihydro-7H-pyrazolo[4,3-d]pyrimidin-7-one] | – | < 10 | 3.95 | ≥ 30 | 253 to 254
CCCOc1ccc(S(C)(=O)=O)cc1-c1nc2c(CC)nn(Cc3ccccn3)c2c(=O)[nH]1 [Example 11, 3-Ethyl-5-[5-(methylsulfonyl)-2-propoxyphenyl]-1-(2-pyridinylmethyl)-1,6-dihydro-7H-pyrazolo[4,3-d]pyrimidin-7-one] | – | < 10 | 1.4 | ≥ 30 | –
CCc1c2nc(-c3cc(S(C)(=O)=O)ccc3OCC(C)C)[nH]c(=O)c2nn1C[C@H]1CCCN1C [Example 14, 3-Ethyl-5-[2-isobutoxy-5-(methylsulfonyl)phenyl]-2-{[(2R)-1-methylpyrrolidinyl]methyl}-2,6-dihydro-7H-pyrazolo[4,3-d]pyrimidin-7-one] | – | < 10 | 8.3 | ≥ 30 | 178 to 180
CCCOc1ccc(S(C)(=O)=O)cc1-c1nc2c(CC)nn(C[C@@H]3CCCN3C)c2c(=O)[nH]1 [Example 18, 3-Ethyl-1-{[(2S)-1-methylpyrrolidinyl]methyl}-5-[5-(methylsulfonyl)-2-propoxyphenyl]-1,6-dihydro-7H-pyrazolo[4,3-d]pyrimidin-7-one] | – | < 10 | 5.4 | ≥ 30 | 211 to 215
CCCCOc1ccc(S(C)(=O)=O)cc1-c1nc2c(CC)n(C3CN(C(C)C)C3)nc2c(=O)[nH]1 [Example 19, 5-[2-Butoxy-5-(methylsulfonyl)phenyl]-3-ethyl-2-(1-isopropyl-3-azetidinyl)-2,6-dihydro-7H-pyrazolo[4,3-d]pyrimidin-7-one] | – | < 10 | 6.6 | ≥ 30 | 209 to 213

More lines, main results first:

half-life at 1 μM [2, 6] [min] | Structure (SMILES) | IC50 [1, 3] [nM] | IC50 [1, 4] [nM] | half-life at 1 μM [2, 5] [min] | melting point [°C]
67 | CCCc1nn(C)c2c(=O)[nH]c(-c3cc(S(C)(=O)=O)ccc3OCC)nc12 [Example 1, 5-[2-Ethoxy-5-(methylsulfonyl)phenyl]-1-methyl-3-propyl-1,6-dihydro-7H-pyrazolo[4,3-d]pyrimidin-7-one] | < 10 | 5.6 | ≥ 30 | 235 to 236
> 120 | CCCOc1ccc(S(C)(=O)=O)cc1-c1nc2c(CC)n(CC3CC3)nc2c(=O)[nH]1 [Example 12, 2-(Cyclopropylmethyl)-3-ethyl-5-[5-(methylsulfonyl)-2-propoxyphenyl]-2,6-dihydro-7H-pyrazolo[4,3-d]pyrimidin-7-one] | < 10 | 1 | ≥ 30 | 233 to 234

Reference: patent publication US6770645B2, “Pharmaceutically active compounds” (Pfizer Inc., priority 2001, dated 2004)
